Source: patent US20250263400A1, “GCN2 MODULATOR COMPOUNDS” (Alesta Therapeutics BV, priority 2022, published 2025)

target: GCN2 (Homo sapiens (Human), UniProt Q9P2K8); assay: GCN2 enzyme assay; format: biochemical
Description: For GCN2 enzyme assays, testing compounds were prepared at proper concentrations in DMSO solution. IC50 values were calculated from a remaining activity using read conversion ratio.

Sequence of GCN2 (Q9P2K8 whole entry, species assumed): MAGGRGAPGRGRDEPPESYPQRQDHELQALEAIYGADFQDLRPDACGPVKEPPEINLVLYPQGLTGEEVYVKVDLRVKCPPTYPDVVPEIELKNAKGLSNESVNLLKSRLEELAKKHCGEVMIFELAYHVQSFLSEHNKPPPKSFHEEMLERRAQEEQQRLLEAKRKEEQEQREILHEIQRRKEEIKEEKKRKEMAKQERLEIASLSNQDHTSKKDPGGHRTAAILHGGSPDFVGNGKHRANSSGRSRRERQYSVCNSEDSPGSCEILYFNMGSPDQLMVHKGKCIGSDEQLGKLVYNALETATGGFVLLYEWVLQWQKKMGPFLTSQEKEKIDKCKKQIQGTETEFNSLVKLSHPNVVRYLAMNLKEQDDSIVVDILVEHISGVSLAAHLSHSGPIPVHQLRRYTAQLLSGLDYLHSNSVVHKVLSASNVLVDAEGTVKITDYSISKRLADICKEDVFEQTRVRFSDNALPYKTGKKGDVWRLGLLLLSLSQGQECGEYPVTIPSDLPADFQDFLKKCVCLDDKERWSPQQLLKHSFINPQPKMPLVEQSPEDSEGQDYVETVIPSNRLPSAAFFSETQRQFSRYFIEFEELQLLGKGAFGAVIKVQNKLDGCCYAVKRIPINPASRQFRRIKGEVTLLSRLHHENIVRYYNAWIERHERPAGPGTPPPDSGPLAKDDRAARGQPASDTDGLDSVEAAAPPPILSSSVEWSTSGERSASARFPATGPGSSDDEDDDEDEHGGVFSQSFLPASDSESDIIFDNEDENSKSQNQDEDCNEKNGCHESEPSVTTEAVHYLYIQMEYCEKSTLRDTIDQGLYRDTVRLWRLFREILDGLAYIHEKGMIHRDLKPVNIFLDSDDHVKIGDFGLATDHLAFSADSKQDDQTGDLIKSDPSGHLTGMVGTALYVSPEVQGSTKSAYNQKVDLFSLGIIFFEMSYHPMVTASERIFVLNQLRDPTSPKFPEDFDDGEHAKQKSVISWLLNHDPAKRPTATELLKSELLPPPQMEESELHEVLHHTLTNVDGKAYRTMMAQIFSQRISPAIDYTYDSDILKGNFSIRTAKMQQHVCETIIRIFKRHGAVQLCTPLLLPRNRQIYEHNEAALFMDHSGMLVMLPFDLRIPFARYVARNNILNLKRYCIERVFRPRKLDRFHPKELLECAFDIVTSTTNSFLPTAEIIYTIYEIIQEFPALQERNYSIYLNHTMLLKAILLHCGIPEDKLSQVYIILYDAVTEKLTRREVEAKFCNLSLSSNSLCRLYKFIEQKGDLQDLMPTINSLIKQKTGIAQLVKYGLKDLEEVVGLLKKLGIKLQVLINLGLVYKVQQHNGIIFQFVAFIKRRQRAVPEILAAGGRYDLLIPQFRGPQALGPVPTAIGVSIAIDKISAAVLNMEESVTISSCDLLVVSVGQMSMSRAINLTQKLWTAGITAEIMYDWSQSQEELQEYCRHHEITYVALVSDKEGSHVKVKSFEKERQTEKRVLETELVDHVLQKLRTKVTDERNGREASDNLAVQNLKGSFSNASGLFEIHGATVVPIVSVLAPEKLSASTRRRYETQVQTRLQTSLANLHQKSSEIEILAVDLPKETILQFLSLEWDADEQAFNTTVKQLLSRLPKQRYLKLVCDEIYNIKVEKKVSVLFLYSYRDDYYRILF

In order of rising IC50:
1. NC(=O)[C@@H]1CC[C@@H](Nc2ncc3cc(-c4c(F)ccc(NS(=O)(=O)c5cc(Cl)cc(CO)c5Cl)c4F)ccc3n2)C1 [Compound 11, (1R,3R)-3-((6-(3-((2,5-dichloro-3-(hydroxymethyl)phe-nyl)sulfonamido)-2,6-difluorophenyl)quina-zolin-2-yl)amino)cyclopent-ane-1-carboxamide]  2.12 nM
2. COCCNC[C@@H]1CC[C@@H](Nc2ncc3cc(-c4c(F)ccc(NS(=O)(=O)c5cc(Cl)cc(CO)c5Cl)c4F)ccc3n2)C1 [Compound 2, 2,5-dichloro-N-(2,4-difluoro-3-(2-(((1R,3R)-3-(((2-methoxyethyl)ami-no)methyl)cyclopent-yl)amino)quina-zolin-6-yl)phenyl)-3-(hydroxymethyl)ben-zenesulfonamide]  2.63 nM
3. Cc1ncc(Cl)cc1S(=O)(=O)Nc1ccc(F)c(-c2ccc3nc(N[C@H]4CC[C@H](N(C)C)CC4)ncc3c2)c1F [Compound 6, 5-chloro-N-(3-(2-(((1R,4R)-4-(dimethylamino)cy-clohexyl)amino)quinazolin-6-yl)-2,4-difluorophenyl)-2-methylpyridine-3-sulfonamide]  3.36 nM
4. COc1ncc(Cl)cc1S(=O)(=O)Nc1ccc(F)c(-c2ccc3nc(N[C@@H]4CC[C@@H](C(N)=O)C4)ncc3c2)c1F [Compound 14, (1R,3R)-3-((6-(3-((5-chloro-2-methoxypyridine)-3-sulfonamido)-2,6-difluorophenyl)quinaz-zolin-2-yl)amino)cyclopent-ane-1-carboxamide 2,2,2-trifluoroacetate]  3.39 nM
5. CN(C)CCNC(=O)[C@H]1CC[C@H](Nc2ncc3cc(-c4c(F)ccc(NS(=O)(=O)c5cc(Cl)cc(CO)c5Cl)c4F)ccc3n2)CC1 [Compound 4, (1R,4R)-4-((6-(3-((2,5-dichloro-3-(hydroxymethyl)phe-nyl)sulfonamido)-2,6-difluorophenyl)quina-zolin-2-yl)amino)-N-(2-(dimethylamino)eth-yl)cyclohexane-1-carboxamide]  3.94 nM
6. COCCNC[C@@H]1CC[C@@H](Nc2ncc3cc(-c4c(F)ccc(NS(=O)(=O)c5cc(Cl)cnc5OC)c4F)ccc3n2)C1 [Compound 13, 5-chloro-N-(2,4-difluoro-3-(2-(((1R,3R)-3-(((2-methoxyethyl)ami-no)methyl)cyclopent-yl)amino)quina-zolin-6-yl)phenyl)-2-methoxypyridine-3-sulfonamide]  3.96 nM
7. COCCNC(=O)[C@H]1C[C@H](Nc2ncc3cc(-c4c(F)ccc(NS(=O)(=O)c5cc(Cl)cnc5OC)c4F)ccc3n2)CN1 [Compound 15, (2R,4S)-4-((6-(3-((5-chloro-2-methoxypyridine)-3-sulfonamido)-2,6-difluorophenyl)quina-zolin-2-yl)amino)-N-(2-methoxyethyl)pyr-rolidine-2-carboxamide]  4.18 nM
8. COCCNC(=O)[C@H]1C[C@H](Nc2ncc3cc(-c4c(F)ccc(NS(=O)(=O)c5cc(Cl)cc(CO)c5Cl)c4F)ccc3n2)CN1 [Compound 3, (2R,4S)-4-((6-(3-((2,5-dichloro-3-(hydroxymethyl)phe-nyl)sulfonamido)-2,6-difluorophenyl)quin-zolin-2-yl)amino)-N-(2-methoxyethyl)pyr-rolidine-2-carboxamide]  5.43 nM
9. COc1ncc(Cl)cc1S(=O)(=O)Nc1ccc(F)c(-c2ccc3nc(NC4CCS(=O)(=O)C4)ncc3c2)c1F (stereo not shown) [Compound 23, 5-chloro-N-(3-(2-((1,1-dioxidotetrahydro-thiophen-3-yl)amino)quinazo-lin-6-yl)-2,4-difluorophenyl)-2-methoxypyridine-3-sulfonamide]  6.66 nM
10. O=S1(=O)CCC(Nc2ncc3cc(-c4c(F)ccc(NS(=O)(=O)c5cc(Cl)cc(CO)c5Cl)c4F)ccc3n2)C1 (stereo not shown) [Compound 12, 2,5-dichloro-N-(3-(2-((1,1-dioxidotetrahydro-thiophen-3-yl)amino)quinazo-lin-6-yl)-2,4-difluorophenyl)-3-(hydroxymethyl)ben-zenesulfonamide]  7.62 nM
11. COCCNC(=O)[C@H]1C[C@H](Nc2ncc3cc(-c4c(Cl)ccc(NS(=O)(=O)c5cc(Cl)cnc5OC)c4Cl)ccc3n2)CN1 [Compound 17, (2R,4S)-4-((6-(2,6-dichloro-3-((5-chloro-2-methoxypyridine)-3-sulfonamido)phenyl)quinazolin-2-yl)amino)-N-(2-methoxyethyl)pyr-rolidine-2-carboxamide]  9.17 nM
12. COCCNC(=O)[C@H]1CC[C@H](Nc2ncc3cc(-c4c(F)ccc(NS(=O)(=O)c5cc(Cl)cnc5OC)c4F)ccc3n2)CC1 [Compound 20, (1R,4R)-4-((6-(3-((5-chloro-2-methoxypyridine)-3-sulfonamido)-2,6-difluorophenyl)quina-zolin-2-yl)amino)-N-(2-methoxyethyl)cyclo-hexane-1-carboxamide]  10.2 nM
13. COCCNC(=O)N1CC[C@@H](Nc2ncc3cc(-c4c(F)ccc(NS(=O)(=O)c5cc(Cl)cc(CO)c5Cl)c4F)ccc3n2)C1 [Compound 1, (R)-3-((6-(3-((2,5-dichloro-3-(hydroxymethyl)phe-nyl)sulfonamido)-2,6-difluorophenyl)quina-zolin-2-yl)amino)-N-(2-methoxyethyl)pyr-rolidine-1-carboxamide]  10.4 nM
14. COCCNC(=O)N1CC[C@@H](Nc2ncc3cc(-c4c(F)ccc(NS(=O)(=O)c5cc(Cl)cnc5OC)c4F)ccc3n2)C1 [Compound 5, (R)-3-((6-(3-((5-chloro-2-methoxypyridine)-3-sulfonamido)-2,6-difluorophenyl)quina-zolin-2-yl)amino)-N-(2-methoxyethyl)pyr-rolidine-1-carboxamide]  11.4 nM
15. COc1ncc(Cl)cc1S(=O)(=O)Nc1ccc(Cl)c(-c2ccc3nc(N[C@@H]4CC[C@@H](C(N)=O)C4)ncc3c2)c1Cl [Compound 16, (1R,3R)-3-((6-(2,6-dichloro-3-((5-chloro-2-methoxypyridine)-3-sulfonamido)phenyl)quinazolin-2-yl)amino)cyclopent-ane-1-carboxamide]  11.7 nM
16. COCCNC[C@@H]1CCC(Nc2ncc3cc(-c4c(Cl)ccc(NS(=O)(=O)c5cc(Cl)cnc5OC)c4Cl)ccc3n2)C1 (stereo partly drawn) [Compound 7, 5-chloro-N-(2,4-dichloro-3-(2-(((1R,3R)-3-(((2-methoxyethyl)ami-no)methyl)cyclopent-yl)amino)quina-zolin-6-yl)phenyl)-2-methoxypyridine-3-sulfonamide]  12.6 nM
17. COc1ncc(Cl)cc1S(=O)(=O)Nc1ccc(Cl)c(-c2ccc3nc(NC4CCS(=O)(=O)C4)ncc3c2)c1Cl (stereo not shown) [Compound 27, 5-chloro-N-(2,4-dichloro-3-(2-((1,1-dioxidotetrahydro-thiophen-3-yl)amino)quinazo-lin-6-yl)phenyl)-2-methoxypyridine-3-sulfonamide]  25.3 nM
18. COCCNC(=O)[C@H]1CC[C@H](Nc2ncc3cc(-c4c(Cl)ccc(NS(=O)(=O)c5cc(Cl)cnc5OC)c4Cl)ccc3n2)CC1 [Compound 21, (1R,4R)-4-((6-(2,6-dichloro-3-((5-chloro-2-methoxypyridine)-3-sulfonamido)phenyl)quinazolin-2-yl)amino)-N-(2-methoxyethyl)cyclo-hexane-1-carboxamide]  31.9 nM
19. COCCNC(=O)N1CC[C@@H](Nc2ncc3cc(-c4c(Cl)ccc(NS(=O)(=O)c5cc(Cl)cnc5OC)c4Cl)ccc3n2)C1 [Compound 18]  41.6 nM
